{"source": "patent US6762207B1", "about": "“(E)-styryl sulfone anticancer agents” (priority 1999, dated 2004)", "type_in_all_cases": "cell-based", "parameters_in_all_cases": "dose or concentration left out as unconfirmed", "conditions_in_all_cases": "96 hours", "key": {"[1]": {"system": "prostate tumor cell line DU-145", "experiment": "Trypan blue exclusion viability assay, DU145", "method": "(§1) MCF-7 is estrogen-responsive, while BT-20 is an estrogen-unresponsive cell line. NIH/3T3 and HFL are normal murine and human fibroblasts, respectively. MCF-7, BT-20, DLD-1 and H157 were grown in Dulbecco's modified Eagle's medium (DMEM) containing 10% fetal bovine serum supplemented with penicillin and streptomycin. DU145 was cultured in RPMI with 10% fetal bovine serum containing penicillin and streptomycin. […] All cell cultures were maintained at 37° C. in a humidified atmosphere of 5% CO2. Cells were treated with test compound at 2.5 mM concentration and cell viability was determined after 96 hours by the Trypan blue exclusion method."}, "[2]": {"system": "colorectal carcinoma cell line DLD-1", "experiment": "Trypan blue exclusion viability assay, DLD-1", "method": "as §1"}, "[3]": {"system": "non-small cell lung carcinoma cell line H157", "experiment": "Trypan blue exclusion viability assay, H157", "method": "as §1"}, "[4]": {"system": "breast tumor cell line BT-20", "experiment": "Trypan blue exclusion viability assay, BT20", "method": "as §1"}}}
{"smiles": "O=S(=O)(/C=C/c1ccccc1C(F)(F)F)Cc1ccc(F)cc1", "note": "[Example 32, (E)-2-trifluoromethylstyryl-4-fluorobenzylsulfone]", "values": [{"measurement": "Cell death, DU145", "setting": "[1]", "value": "+ (5-10%: = +)"}, {"measurement": "Cell death, DLD-1", "setting": "[2]", "value": "+ (5-10%: = +)"}, {"measurement": "Cell death, H157", "setting": "[3]", "value": "+ (5-10%: = +)"}, {"measurement": "Cell death, BT20", "setting": "[4]", "value": "+ (5-10%: = +)"}]}
{"smiles": "O=[N+]([O-])c1ccccc1/C=C/S(=O)(=O)Cc1ccc(Br)cc1", "note": "[Example 46, (E)-2-nitrostyryl-4-bromobenzylsulfone]", "values": [{"measurement": "Cell death, DU145", "setting": "[1]", "value": "+ (5-10%: = +)"}, {"measurement": "Cell death, DLD-1", "setting": "[2]", "value": "+ (5-10%: = +)"}, {"measurement": "Cell death, H157", "setting": "[3]", "value": "+ (5-10%: = +)"}, {"measurement": "Cell death, BT20", "setting": "[4]", "value": "+ (5-10%: = +)"}]}
{"smiles": "COc1ccc(CS(=O)(=O)/C=C/c2ccc(F)cc2)cc1", "note": "[Example 60, (E)-4-fluorostyryl-4-methoxybenzylsulfone]", "values": [{"measurement": "Cell death, DU145", "setting": "[1]", "value": "+++++ (Above 80% = +++++)"}, {"measurement": "Cell death, DLD-1", "setting": "[2]", "value": "+++++ (Above 80% = +++++)"}, {"measurement": "Cell death, H157", "setting": "[3]", "value": "+++++ (Above 80% = +++++)"}, {"measurement": "Cell death, BT20", "setting": "[4]", "value": "+++++ (Above 80% = +++++)"}]}
{"smiles": "O=[N+]([O-])c1ccc(/C=C/S(=O)(=O)Cc2ccc(Cl)cc2)cc1", "note": "[Example 38, (E)-4-nitrostyryl-4-chlorobenzylsulfone]", "values": [{"measurement": "Cell death, DU145", "setting": "[1]", "value": "++++ (50-60% = ++++)"}, {"measurement": "Cell death, DLD-1", "setting": "[2]", "value": "++++ (50-60% = ++++)"}, {"measurement": "Cell death, H157", "setting": "[3]", "value": "++++ (50-60% = ++++)"}, {"measurement": "Cell death, BT20", "setting": "[4]", "value": "++++ (50-60% = ++++)"}]}
{"smiles": "O=S(=O)(/C=C/c1ccc(F)cc1C(F)(F)F)Cc1ccc(F)cc1", "note": "[Example 35, (E)-2-trifluoromethy-4-fluorostyryl-4-fluorobenzylsulfone]", "values": [{"measurement": "Cell death, DU145", "setting": "[1]", "value": "+ (5-10%: = +)"}, {"measurement": "Cell death, DLD-1", "setting": "[2]", "value": "+ (5-10%: = +)"}, {"measurement": "Cell death, H157", "setting": "[3]", "value": "+ (5-10%: = +)"}, {"measurement": "Cell death, BT20", "setting": "[4]", "value": "+ (5-10%: = +)"}]}
{"smiles": "O=S(=O)(/C=C/c1ccc(C(F)(F)F)cc1)Cc1ccc(Cl)cc1", "note": "[Example 41, (E)-4-trifluoromethylstyryl-4-chlorobenzylsulfone]", "values": [{"measurement": "Cell death, DU145", "setting": "[1]", "value": "+ (5-10%: = +)"}, {"measurement": "Cell death, DLD-1", "setting": "[2]", "value": "+ (5-10%: = +)"}, {"measurement": "Cell death, H157", "setting": "[3]", "value": "+ (5-10%: = +)"}, {"measurement": "Cell death, BT20", "setting": "[4]", "value": "+ (5-10%: = +)"}]}
{"smiles": "Cc1ccc(CS(=O)(=O)/C=C/c2ccc([N+](=O)[O-])cc2)cc1", "note": "[Example 59, (E)-4-nitrostyryl-4-methylbenzylsulfone]", "values": [{"measurement": "Cell death, DU145", "setting": "[1]", "value": "+ (5-10%: = +)"}, {"measurement": "Cell death, DLD-1", "setting": "[2]", "value": "+ (5-10%: = +)"}, {"measurement": "Cell death, H157", "setting": "[3]", "value": "+ (5-10%: = +)"}, {"measurement": "Cell death, BT20", "setting": "[4]", "value": "+ (5-10%: = +)"}]}
{"smiles": "COc1ccc(CS(=O)(=O)/C=C/c2ccc(Cl)cc2)cc1", "note": "[Example 61, (E)-4-chlorostyryl-4-methoxybenzylsulfone]", "values": [{"measurement": "Cell death, DU145", "setting": "[1]", "value": "++++ (50-60% = ++++)"}, {"measurement": "Cell death, DLD-1", "setting": "[2]", "value": "++++ (50-60% = ++++)"}, {"measurement": "Cell death, H157", "setting": "[3]", "value": "++++ (50-60% = ++++)"}, {"measurement": "Cell death, BT20", "setting": "[4]", "value": "++++ (50-60% = ++++)"}]}
{"smiles": "Cc1ccc(CS(=O)(=O)/C=C/c2cccc([N+](=O)[O-])c2)cc1", "note": "[Example 58, (E)-3-nitrostyryl-4-methylbenzylsulfone]", "values": [{"measurement": "Cell death, DU145", "setting": "[1]", "value": "+ (5-10%: = +)"}, {"measurement": "Cell death, DLD-1", "setting": "[2]", "value": "+ (5-10%: = +)"}, {"measurement": "Cell death, H157", "setting": "[3]", "value": "+ (5-10%: = +)"}, {"measurement": "Cell death, BT20", "setting": "[4]", "value": "+ (5-10%: = +)"}]}
{"smiles": "O=S(=O)(/C=C/c1ccc(Cl)cc1)Cc1ccc(I)cc1", "note": "[Example 23, (E)-4-Chlorostyryl-4-iodobenzylsulfone]", "values": [{"measurement": "Cell death, DU145", "setting": "[1]", "value": "++ (10-15% = ++)"}, {"measurement": "Cell death, DLD-1", "setting": "[2]", "value": "++ (10-15% = ++)"}, {"measurement": "Cell death, H157", "setting": "[3]", "value": "++ (10-15% = ++)"}, {"measurement": "Cell death, BT20", "setting": "[4]", "value": "+++ (40-50% = +++)"}]}
{"smiles": "O=[N+]([O-])c1ccc(CS(=O)(=O)/C=C/c2ccc(Cl)cc2)cc1", "note": "[Example 66, (E)-4-chlorostyryl-4-nitrobenzylsulfone]", "values": [{"measurement": "Cell death, DU145", "setting": "[1]", "value": "+ (5-10%: = +)"}, {"measurement": "Cell death, DLD-1", "setting": "[2]", "value": "+ (5-10%: = +)"}, {"measurement": "Cell death, H157", "setting": "[3]", "value": "+ (5-10%: = +)"}, {"measurement": "Cell death, BT20", "setting": "[4]", "value": "+ (5-10%: = +)"}]}
{"smiles": "O=[N+]([O-])c1ccc(/C=C/S(=O)(=O)Cc2ccc(Br)cc2)cc1", "note": "[Example 48, (E)-4-nitrostyryl-4-bromobenzylsulfone]", "values": [{"measurement": "Cell death, DU145", "setting": "[1]", "value": "++++ (50-60% = ++++)"}, {"measurement": "Cell death, DLD-1", "setting": "[2]", "value": "++++ (50-60% = ++++)"}, {"measurement": "Cell death, H157", "setting": "[3]", "value": "++++ (50-60% = ++++)"}, {"measurement": "Cell death, BT20", "setting": "[4]", "value": "++++ (50-60% = ++++)"}]}
